Results published in ChEMBL document CHEMBL3870342, “New polyhydroxytriterpenoid derivatives from fruits of Terminalia chebula Retz. and their α-glucosidase and α-amylase inhibitory activity” (Bioorg Med Chem Lett, 2017).
pIC50: −log10 of the molar value.

Columns and labels:
Rattus norvegicus = species on record: Rattus norvegicus; test: Inhibition of rat intestinal alpha-glucosidase using PNPG as substrate at 200 uM after 30 mins
Saccharomyces cerevisiae = test: Inhibition of Saccharomyces cerevisiae alpha-glucosidase using PNPG as substrate at 200 uM preincubated for 10 mins followed by substrate addition measured after 10 mins
[1] = target: T1, Pancreatic alpha-amylase (Sus scrofa) (UniProt P00690); test: Inhibition of pig pancreas alpha-amylase using potato starch as substrate at 200 uM after 15 mins
T1 sequence (whole entry): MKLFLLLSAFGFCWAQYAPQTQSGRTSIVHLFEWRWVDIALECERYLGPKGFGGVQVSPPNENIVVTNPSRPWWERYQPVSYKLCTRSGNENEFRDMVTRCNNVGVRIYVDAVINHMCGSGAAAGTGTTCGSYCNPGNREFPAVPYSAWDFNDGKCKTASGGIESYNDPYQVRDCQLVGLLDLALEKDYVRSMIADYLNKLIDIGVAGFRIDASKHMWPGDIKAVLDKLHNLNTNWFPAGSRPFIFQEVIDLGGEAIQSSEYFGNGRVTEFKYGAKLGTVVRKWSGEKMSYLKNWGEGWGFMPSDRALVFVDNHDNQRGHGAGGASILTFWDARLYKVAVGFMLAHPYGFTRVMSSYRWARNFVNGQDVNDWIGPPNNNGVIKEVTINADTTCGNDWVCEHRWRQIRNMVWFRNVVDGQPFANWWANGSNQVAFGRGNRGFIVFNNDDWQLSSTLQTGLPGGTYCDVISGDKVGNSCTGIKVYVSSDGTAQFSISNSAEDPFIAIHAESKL

[2] = Inhibition of Saccharomyces cerevisiae alpha-glucosidase using PNPG as substrate preincubated for 10 mins followed by substrate addition measured after 10 mins

SMILES	inhibition (Rattus norvegicus) [%]	inhibition (Saccharomyces cerevisiae) [%]	inhibition [1] [%]	pIC50 [2]
CC1(C)CC[C@]2(C(=O)O[C@@H]3O[C@H](CO)[C@@H](O)[C@H](O)[C@H]3O)CC[C@]3(C)C(=CC[C@@H]4[C@@]5(C)C[C@@H](O)[C@H](O)C(C)(C)[C@@H]5CC[C@]43C)[C@@H]2[C@@H]1O	7.8	36.1	7.2	–
CC1(C)CC[C@]2(C(=O)O[C@@H]3O[C@H](CO)[C@@H](O)[C@H](O)[C@H]3O)CC[C@]3(C)C(=CC[C@@H]4[C@@]5(C)CC[C@H](O)[C@@](C)(CO)[C@@H]5CC[C@]43C)[C@@H]2[C@@H]1O	9.7	20.7	5.6	–
CC1(C)CC[C@]2(C(=O)O)CC[C@]3(C)C(=CC[C@@H]4[C@@]5(C)C[C@@H](O)[C@H](O)[C@@](C)(CO)[C@@H]5CC[C@]43C)[C@@H]2C1	4.7	48.8	9.7	–
CC1=C2C3=CC[C@@H]4[C@@]5(C)C[C@@H](O)[C@H](O)[C@@](C)(CO)[C@@H]5CC[C@@]4(C)[C@]3(C)CC[C@@]2(C(=O)O[C@@H]2O[C@H](CO)[C@@H](O)[C@H](O)[C@H]2O)CC[C@H]1C	7.3	25.1	2.4	–
CC1(C)CC[C@]2(C(=O)O)CC[C@]3(C)C(=CC[C@@H]4[C@@]5(C)C[C@@H](O)[C@H](O)[C@@](C)(CO)[C@@H]5CC[C@]43C)[C@@H]2[C@@H]1O	2.8	4.4	1.7	–
CC1(C)CC[C@]2(C(=O)O[C@@H]3O[C@H](CO)[C@@H](O)[C@H](O)[C@H]3O)CC[C@]3(C)C(=CC[C@@H]4[C@@]5(C)C[C@@H](O)[C@H](O)[C@@](C)(CO)[C@@H]5CC[C@]43C)[C@@H]2[C@@H]1O	–	3.1	–	–

Next, values leading:

inhibition (Rattus norvegicus) [%]	inhibition (Saccharomyces cerevisiae) [%]	inhibition [1] [%]	pIC50 [2]	SMILES
69.3	58.6	82.1	3.76	C[C@H]1O[C@H](O[C@H]2[C@H](O)[C@@H](O)[C@@H](O[C@H]3[C@H](O)[C@@H](O)C(O)O[C@@H]3CO)O[C@@H]2CO)[C@H](O)[C@@H](O)[C@@H]1N[C@H]1C=C(CO)[C@@H](O)[C@H](O)[C@H]1O (stereo not given in full) [ACARBOSE]
8.5	40.1	3.3	–	CC1(C)CC[C@]2(C(=O)O)CC[C@]3(C)C(=CC[C@@H]4[C@@]5(C)C[C@@H](O)[C@H](O)[C@@](C)(COC(=O)[C@H](CC(=O)O)C[C@H]6c7c(cc(O)c(O)c7O)C(=O)O[C@@H]6C(=O)O)[C@@H]5CC[C@]43C)[C@@H]2[C@@H]1O
10.1	21	7.5	–	CC1(C)CC[C@]2(C(=O)O)CC[C@]3(C)C(=CC[C@@H]4[C@@]5(C)C[C@@H](O)[C@H](O)[C@@](C)(CO)[C@@H]5[C@H](O)C[C@]43C)[C@@H]2C1
6.4	4	5.9	–	CC1(C)CC[C@]2(C(=O)O[C@@H]3O[C@H](CO)[C@@H](O)[C@H](O)[C@H]3O)CC[C@]3(C)C(=CC[C@@H]4[C@@]5(C)C[C@@H](O)[C@H](O)[C@@](C)(CO)[C@@H]5CC[C@]43C)[C@@H]2C1
6.7	8.2	4.4	–	CC1(C)CC[C@]2(C(=O)O[C@@H]3O[C@H](CO)[C@@H](O)[C@H](O)[C@H]3O)CC[C@]3(C)C(=CC[C@@H]4[C@@]5(C)C[C@@H](O)[C@H](O)[C@@](C)(COC(=O)[C@@H](CC(=O)O)C[C@H]6c7c(cc(O)c(O)c7O)C(=O)O[C@@H]6C(=O)O)[C@@H]5CC[C@]43C)[C@@H]2[C@@H]1O
7.8	48.2	6.2	–	CC1(C)CC[C@]2(C(=O)O)CC[C@]3(C)C(=CC[C@@H]4[C@@]5(C)C[C@@H](O)[C@H](O)C(C)(C)[C@@H]5CC[C@]43C)[C@@H]2[C@@H]1O
